Key:
Assay type in all cases: functional
Malme-3M = test: Growth inhibition of human MALME-3M cells assessed as cell growth at 3X10'-9 M after 48 hrs by sulforhodamine B assay; details: read-out: Activity
MOLT-4 = test: Growth inhibition of human MOLT4 cells assessed as cell growth at 3X10'-9 M after 48 hrs by sulforhodamine B assay; details: MOLT-4, 48 h, read-out: Activity
HOP-62 = test: Growth inhibition of human HOP62 cells assessed as cell growth at 3X10'-7 M after 48 hrs by sulforhodamine B assay; details: HOP-62, 48 h, read-out: Activity
NCI-H522 = test: Growth inhibition of human NCI-H522 cells assessed as cell growth at 3X10'-6 M after 48 hrs by sulforhodamine B assay; details: NCI-H522, 48 h, read-out: Activity
SK-MEL-2 = test: Growth inhibition of human SK-MEL-2 cells assessed as cell growth at 3X10'-9 M after 48 hrs by sulforhodamine B assay; details: SK-MEL-2, 48 h, read-out: Activity
MDA-MB-468 [1] = test: Growth inhibition of human MDA-MB-468 cells assessed as cell growth at 3X10'-9 M after 48 hrs by sulforhodamine B assay; details: MDA-MB-468, 48 h, read-out: Activity
SW-620 = test: Growth inhibition of human SW620 cells assessed as cell growth at 3X10'-5 M after 48 hrs by sulforhodamine B assay; details: SW-620, 48 h, read-out: Activity
LOX IMVI [2] = test: Growth inhibition of human LOXIMVI cells assessed as cell growth at 3X10'-5 M after 48 hrs by sulforhodamine B assay; details: read-out: Activity
HCT-15 = test: Growth inhibition of human HCT15 cells assessed as cell growth at 3X10'-7 M after 48 hrs by sulforhodamine B assay; details: HCT-15, 48 h, read-out: Activity
SF-295 [3] = test: Growth inhibition of human SF295 cells assessed as cell growth at 3X10'-7 M after 48 hrs by sulforhodamine B assay; details: SF-295, 48 h, read-out: Activity
TK-10 = test: Growth inhibition of human TK10 cells assessed as cell growth at 3X10'-5 M after 48 hrs by sulforhodamine B assay; details: TK-10, 48 h, read-out: Activity
HT-29 = test: Growth inhibition of human HT-29 cells assessed as cell growth at 3X10'-5 M after 48 hrs by sulforhodamine B assay; details: HT-29, 48 h, read-out: Activity
SNB-19 = test: Growth inhibition of human SNB19 cells assessed as cell growth at 3X10'-5 M after 48 hrs by sulforhodamine B assay; details: SNB-19, 48 h, read-out: Activity
RPMI-8226 = test: Growth inhibition of human RPMI8226 cells assessed as cell growth at 3X10'-7 M after 48 hrs by sulforhodamine B assay; details: RPMI-8226, 48 h, read-out: Activity
SK-MEL-5 = test: Growth inhibition of human SK-MEL-5 cells assessed as cell growth at 3X10'-6 M after 48 hrs by sulforhodamine B assay; details: SK-MEL-5, 48 h, read-out: Activity
NCI-H23 = test: Growth inhibition of human NCI-H23 cells assessed as cell growth at 3X10'-6 M after 48 hrs by sulforhodamine B assay; details: NCI-H23, 48 h, read-out: Activity
SN12C [4] = test: Growth inhibition of human SN12C cells assessed as cell growth at 3X10'-9 M after 48 hrs by sulforhodamine B assay; details: read-out: Activity
CAKI-1 = test: Growth inhibition of human CAKI-1 cells assessed as cell growth at 3X10'-6 M after 48 hrs by sulforhodamine B assay; details: CAKI-1, 48 h, read-out: Activity
T47D = test: Growth inhibition of human T47D cells assessed as cell growth at 3X10'-7 M after 48 hrs by sulforhodamine B assay; details: read-out: Activity
A549 = test: Growth inhibition of human A549/ATCC cells assessed as cell growth at 3X10'-7 M after 48 hrs by sulforhodamine B assay; details: A549, 48 h, read-out: Activity
SN12C [5] = test: Growth inhibition of human SN12C cells assessed as cell growth at 3X10'-5 M after 48 hrs by sulforhodamine B assay; details: read-out: Activity
[6] = Growth inhibition of human Hs 578T cells assessed as cell growth at 3X10'-5 M after 48 hrs by sulforhodamine B assay; details: read-out: Activity
MDA-MB-468 [7] = test: Growth inhibition of human MDA-MB-468 cells assessed as cell growth at 3X10'-5 M after 48 hrs by sulforhodamine B assay; details: MDA-MB-468, 48 h, read-out: Activity
SF-295 [8] = test: Growth inhibition of human SF295 cells assessed as cell growth at 3X10'-9 M after 48 hrs by sulforhodamine B assay; details: SF-295, 48 h, read-out: Activity
HL-60(TB) = test: Growth inhibition of human HL-60(TB) cells assessed as cell growth at 3X10'-7 M after 48 hrs by sulforhodamine B assay; details: HL-60, 48 h, read-out: Activity
IGROV-1 [9] = test: Growth inhibition of human IGROV1 cells assessed as cell growth at 3X10'-7 M after 48 hrs by sulforhodamine B assay; details: IGROV-1, 48 h, read-out: Activity
UACC-62 [10] = test: Growth inhibition of human UACC62 cells assessed as cell growth at 3X10'-5 M after 48 hrs by sulforhodamine B assay; details: UACC-62, 48 h, read-out: Activity
NCI-H322M = test: Growth inhibition of human NCI-H322M cells assessed as cell growth at 3X10'-8 M after 48 hrs by sulforhodamine B assay; details: read-out: Activity
UACC-62 [11] = test: Growth inhibition of human UACC62 cells assessed as cell growth at 3X10'-9 M after 48 hrs by sulforhodamine B assay; details: UACC-62, 48 h, read-out: Activity
SF-295 [12] = test: Growth inhibition of human SF295 cells assessed as cell growth at 3X10'-5 M after 48 hrs by sulforhodamine B assay; details: SF-295, 48 h, read-out: Activity
OVCAR-4 = test: Growth inhibition of human OVCAR4 cells assessed as cell growth at 3X10'-8 M after 48 hrs by sulforhodamine B assay; details: OVCAR-4, 48 h, read-out: Activity
CCRF-CEM [13] = test: Growth inhibition of human CCRF-CEM cells assessed as cell growth at 3X10'-7 M after 48 hrs by sulforhodamine B assay; details: read-out: Activity
CCRF-CEM [14] = test: Growth inhibition of human CCRF-CEM cells assessed as cell growth at 3X10'-6 M after 48 hrs by sulforhodamine B assay; details: read-out: Activity
A498 = test: Growth inhibition of human A498 cells assessed as cell growth at 3X10'-5 M after 48 hrs by sulforhodamine B assay; details: A498, 48 h, read-out: Activity
LOX IMVI [15] = test: Growth inhibition of human LOXIMVI cells assessed as cell growth at 3X10'-9 M after 48 hrs by sulforhodamine B assay; details: read-out: Activity
[16] = Growth inhibition of human Hs 578T cells assessed as cell growth at 3X10'-7 M after 48 hrs by sulforhodamine B assay; details: read-out: Activity
IGROV-1 [17] = test: Growth inhibition of human IGROV1 cells assessed as cell growth at 3X10'-9 M after 48 hrs by sulforhodamine B assay; details: IGROV-1, 48 h, read-out: Activity

Compound	growth at 0.003 µM (Malme-3M)	growth at 0.003 µM (MOLT-4)	growth at 0.3 µM (HOP-62)	growth at 3 µM (NCI-H522)	growth at 0.003 µM (SK-MEL-2)	growth at 0.003 µM (MDA-MB-468 [1])	growth at 30 µM (SW-620)	growth at 30 µM (LOX IMVI [2])	growth at 0.3 µM (HCT-15)	growth at 0.3 µM (SF-295 [3])	growth at 30 µM (TK-10)	growth at 30 µM (HT-29)	growth at 30 µM (SNB-19)	growth at 0.3 µM (RPMI-8226)	growth at 3 µM (SK-MEL-5)	growth at 3 µM (NCI-H23)	growth at 0.003 µM (SN12C [4])	growth at 3 µM (CAKI-1)	growth at 0.3 µM (T47D)	growth at 0.3 µM (A549)	other results
COc1cc(-c2nn(-c3cccc(NC(=O)c4ccc(Cl)c(C(F)(F)F)c4)c3)cc2-c2ccncc2)ccc1Cl	80%	100%	94%	12%	92%	89%	24%	16%	94%	90%	44%	3%	29%	94%	24%	59%	98%	44%	92%	92%	growth at 30 µM (SN12C [5]): 35%; growth at 30 µM [6]: 5%; growth at 30 µM (MDA-MB-468 [7]): 9%; growth at 0.003 µM (SF-295 [8]): 92%; growth at 0.3 µM (HL-60(TB)): 116%; growth at 0.3 µM (IGROV-1 [9]): 95%; growth at 30 µM (UACC-62 [10]): 20%; growth at 0.03 µM (NCI-H322M): 90%; growth at 0.003 µM (UACC-62 [11]): 99%; growth at 30 µM (SF-295 [12]): -10%; growth at 0.03 µM (OVCAR-4): 103%; growth at 0.3 µM (CCRF-CEM [13]): 101%; growth at 3 µM (CCRF-CEM [14]): 32%; growth at 30 µM (A498): -9%; growth at 0.003 µM (LOX IMVI [15]): 92%; growth at 0.3 µM [16]: 82%; growth at 0.003 µM (IGROV-1 [17]): 94%
O=C(Nc1cccc(-n2cc(-c3ccncc3)c(-c3ccc(Cl)c(O)c3)n2)c1)Nc1ccc(Cl)c(C(F)(F)F)c1	100%	110%	104%	-11%	113%	89%	-43%	-91%	84%	90%	-19%	-63%	-42%	73%	-81%	1%	95%	-9%	95%	86%	growth at 30 µM (SN12C [5]): -6%; growth at 30 µM [6]: -8%; growth at 30 µM (MDA-MB-468 [7]): -43%; growth at 0.003 µM (SF-295 [8]): 92%; growth at 0.3 µM (HL-60(TB)): 138%; growth at 0.3 µM (IGROV-1 [9]): 85%; growth at 30 µM (UACC-62 [10]): -83%; growth at 0.03 µM (NCI-H322M): 105%; growth at 0.003 µM (UACC-62 [11]): 98%; growth at 30 µM (SF-295 [12]): -41%; growth at 0.03 µM (OVCAR-4): 95%; growth at 0.3 µM (CCRF-CEM [13]): 80%; growth at 3 µM (CCRF-CEM [14]): -7%; growth at 30 µM (A498): -49%; growth at 0.003 µM (LOX IMVI [15]): 100%; growth at 0.3 µM [16]: 76%; growth at 0.003 µM (IGROV-1 [17]): 98%
